From ChEMBL document CHEMBL5724914, “Linking interpersonal differences in gut microbiota composition and drug biotransformation activity” (2024)

Details: human gut metagenome, 24 h, 2 µM
Note: call rule not given here.

Row | Bacterial Biotransformation | SMILES
1 | Compound metabolized | CCOC(=O)[C@H](CCc1ccccc1)N[C@H]1CCc2ccccc2N(CC(=O)O)C1=O [BENAZEPRIL]
2 | Compound NOT metabolized | C=CCc1ccccc1OCC(O)CNC(C)C (stereo not given) [ALPRENOLOL]

Experiment: (§1) The drug is tested on WLS-220 corresponding to human gut metagenome with ENA study accession number: PRJEB37062 and ENA sample accession number: ERS12561769 for biotransformation under anaerobic condition. The drug concentrations were measured over 9 timepoints collected between 0 and 24 hours of incubation by liquid-chromatography-coupled mass spectrometry (LC–MS)
Details: 2 µM

Row | Bacterial Biotransformation | SMILES
3 | Compound metabolized | CCOC(=O)[C@H](CCc1ccccc1)N[C@H]1CCc2ccccc2N(CC(=O)O)C1=O [BENAZEPRIL]
4 | Compound metabolized | C=CCc1ccccc1OCC(O)CNC(C)C (stereo not given) [ALPRENOLOL]

Details: human gut metagenome, 24 h, 2 µM
Remark: another data set of the same source

Row | Bacterial Biotransformation | SMILES
5 | Compound metabolized | CCOC(=O)[C@H](CCc1ccccc1)N[C@H]1CCc2ccccc2N(CC(=O)O)C1=O [BENAZEPRIL]
6 | Compound metabolized | C=CCc1ccccc1OCC(O)CNC(C)C (stereo not given) [ALPRENOLOL]

Experiment: as §1, with “Z-022” for “WLS-220”, “mouse” for “human”, “ERS12561821” for “ERS12561769”
Details: 2 µM

Row | Bacterial Biotransformation | SMILES
7 | Compound metabolized | CCOC(=O)[C@H](CCc1ccccc1)N[C@H]1CCc2ccccc2N(CC(=O)O)C1=O [BENAZEPRIL]
8 | Compound metabolized | C=CCc1ccccc1OCC(O)CNC(C)C (stereo not given) [ALPRENOLOL]

Details: human gut metagenome, 24 h, 2 µM
Remark: another data set of the same source

Row | Bacterial Biotransformation | SMILES
9 | Compound metabolized | CCOC(=O)[C@H](CCc1ccccc1)N[C@H]1CCc2ccccc2N(CC(=O)O)C1=O [BENAZEPRIL]
10 | Compound NOT metabolized | C=CCc1ccccc1OCC(O)CNC(C)C (stereo not given) [ALPRENOLOL]

Experiment: as §1, with “Z-029” for “WLS-220”, “rat” for “human”, “ERS12561828” for “ERS12561769”
Details: 2 µM

Row | Bacterial Biotransformation | SMILES
11 | Compound metabolized | CCOC(=O)[C@H](CCc1ccccc1)N[C@H]1CCc2ccccc2N(CC(=O)O)C1=O [BENAZEPRIL]
12 | Compound NOT metabolized | C=CCc1ccccc1OCC(O)CNC(C)C (stereo not given) [ALPRENOLOL]

Details: human gut metagenome, 24 h, 2 µM
Remark: another data set of the same source

Row | Bacterial Biotransformation | SMILES
13 | Compound metabolized | CCOC(=O)[C@H](CCc1ccccc1)N[C@H]1CCc2ccccc2N(CC(=O)O)C1=O [BENAZEPRIL]
14 | Compound NOT metabolized | C=CCc1ccccc1OCC(O)CNC(C)C (stereo not given) [ALPRENOLOL]

Details: human gut metagenome, 24 h, 2 µM
Remark: another data set of the same source

Row | Bacterial Biotransformation | SMILES
15 | Compound metabolized | CCOC(=O)[C@H](CCc1ccccc1)N[C@H]1CCc2ccccc2N(CC(=O)O)C1=O [BENAZEPRIL]
16 | Compound metabolized | C=CCc1ccccc1OCC(O)CNC(C)C (stereo not given) [ALPRENOLOL]

Experiment: as §1, with “WLS-052” for “WLS-220”, “ERS12561747” for “ERS12561769”
Details: 2 µM

Row | Bacterial Biotransformation | SMILES
17 | Compound metabolized | CCOC(=O)[C@H](CCc1ccccc1)N[C@H]1CCc2ccccc2N(CC(=O)O)C1=O [BENAZEPRIL]
18 | Compound NOT metabolized | C=CCc1ccccc1OCC(O)CNC(C)C (stereo not given) [ALPRENOLOL]

Experiment: as §1, with “WLS-069” for “WLS-220”, “ERS12561748” for “ERS12561769”
Details: 2 µM

Row | Bacterial Biotransformation | SMILES
19 | Compound metabolized | CCOC(=O)[C@H](CCc1ccccc1)N[C@H]1CCc2ccccc2N(CC(=O)O)C1=O [BENAZEPRIL]
20 | Compound NOT metabolized | C=CCc1ccccc1OCC(O)CNC(C)C (stereo not given) [ALPRENOLOL]

Details: human gut metagenome, 24 h, 2 µM
Remark: another data set of the same source

Row | Bacterial Biotransformation | SMILES
21 | Compound metabolized | CCOC(=O)[C@H](CCc1ccccc1)N[C@H]1CCc2ccccc2N(CC(=O)O)C1=O [BENAZEPRIL]
22 | Compound NOT metabolized | C=CCc1ccccc1OCC(O)CNC(C)C (stereo not given) [ALPRENOLOL]

Experiment: as §1, with “Z-006” for “WLS-220”, “mouse” for “human”, “ERS12561806” for “ERS12561769”
Details: 2 µM

Row | Bacterial Biotransformation | SMILES
23 | Compound metabolized | CCOC(=O)[C@H](CCc1ccccc1)N[C@H]1CCc2ccccc2N(CC(=O)O)C1=O [BENAZEPRIL]
24 | Compound NOT metabolized | C=CCc1ccccc1OCC(O)CNC(C)C (stereo not given) [ALPRENOLOL]

Experiment: as §1, with “Z-005” for “WLS-220”, “to” for “to human gut”, “ERS12561805” for “ERS12561769”
Details: 2 µM

Row | Bacterial Biotransformation | SMILES
25 | Compound metabolized | CCOC(=O)[C@H](CCc1ccccc1)N[C@H]1CCc2ccccc2N(CC(=O)O)C1=O [BENAZEPRIL]
26 | Compound NOT metabolized | C=CCc1ccccc1OCC(O)CNC(C)C (stereo not given) [ALPRENOLOL]

Experiment: as §1, with “WLS-350” for “WLS-220”, “ERS12561789” for “ERS12561769”
Details: 2 µM

Row | Bacterial Biotransformation | SMILES
27 | Compound metabolized | CCOC(=O)[C@H](CCc1ccccc1)N[C@H]1CCc2ccccc2N(CC(=O)O)C1=O [BENAZEPRIL]
28 | Compound NOT metabolized | C=CCc1ccccc1OCC(O)CNC(C)C (stereo not given) [ALPRENOLOL]

Experiment: as §1, with “Z-017” for “WLS-220”, “mouse” for “human”, “ERS12561816” for “ERS12561769”
Details: 2 µM

Row | Bacterial Biotransformation | SMILES
29 | Compound metabolized | CCOC(=O)[C@H](CCc1ccccc1)N[C@H]1CCc2ccccc2N(CC(=O)O)C1=O [BENAZEPRIL]
30 | Compound NOT metabolized | C=CCc1ccccc1OCC(O)CNC(C)C (stereo not given) [ALPRENOLOL]

Details: human gut metagenome, 24 h, 2 µM
Remark: another data set of the same source

Row | Bacterial Biotransformation | SMILES
31 | Compound metabolized | CCOC(=O)[C@H](CCc1ccccc1)N[C@H]1CCc2ccccc2N(CC(=O)O)C1=O [BENAZEPRIL]
32 | Compound NOT metabolized | C=CCc1ccccc1OCC(O)CNC(C)C (stereo not given) [ALPRENOLOL]

Details: human gut metagenome, 24 h, 2 µM
Remark: another data set of the same source

Row | Bacterial Biotransformation | SMILES
33 | Compound metabolized | CCOC(=O)[C@H](CCc1ccccc1)N[C@H]1CCc2ccccc2N(CC(=O)O)C1=O [BENAZEPRIL]
34 | Compound metabolized | C=CCc1ccccc1OCC(O)CNC(C)C (stereo not given) [ALPRENOLOL]

Details: human gut metagenome, 24 h, 2 µM
Remark: another data set of the same source

Row | Bacterial Biotransformation | SMILES
35 | Compound metabolized | CCOC(=O)[C@H](CCc1ccccc1)N[C@H]1CCc2ccccc2N(CC(=O)O)C1=O [BENAZEPRIL]
36 | Compound NOT metabolized | C=CCc1ccccc1OCC(O)CNC(C)C (stereo not given) [ALPRENOLOL]

Experiment: as §1, with “Z-004” for “WLS-220”, “to” for “to human gut”, “ERS12561804” for “ERS12561769”
Details: 2 µM

Row | Bacterial Biotransformation | SMILES
37 | Compound metabolized | CCOC(=O)[C@H](CCc1ccccc1)N[C@H]1CCc2ccccc2N(CC(=O)O)C1=O [BENAZEPRIL]
38 | Compound NOT metabolized | C=CCc1ccccc1OCC(O)CNC(C)C (stereo not given) [ALPRENOLOL]

Details: human gut metagenome, 24 h, 2 µM
Remark: another data set of the same source

Row | Bacterial Biotransformation | SMILES
39 | Compound metabolized | CCOC(=O)[C@H](CCc1ccccc1)N[C@H]1CCc2ccccc2N(CC(=O)O)C1=O [BENAZEPRIL]
40 | Compound metabolized | C=CCc1ccccc1OCC(O)CNC(C)C (stereo not given) [ALPRENOLOL]
